Experimental data: patent US20210145834A1, “COMBINATION OF POZIOTINIB WITH CYTOTOXIC AGENT AND/OR OTHER MOLECULARLY TARGETED AGENT AND USE THEREOF” (Spectrum Pharmaceuticals, Inc., priority 2018, published 2021)
Several values for one entry are separate records, joined by “and”; a condition that tells them apart may be missing. Identical values can stand only once. Like-named read-outs stand apart in the source and are kept apart here.

Assays:
Type in all cases: cell-based
BT-474 cells = experiment: Cell growth inhibition assay (sulforhodamine B), single agents and combinations; settings: BT-474, single agent, 3 days
Experimental: (§1) The effect of the inventive compositions on the cancer cell growth inhibition was conducted in EGFR-overexpressed or -mutated cancer cell lines.
(§2) All cells except for H1975 were cultured for 72 hours prior to cell plating. Cells were seeded in a 96-well plate at 4 to 15×10^3 cells/well. Approximately 24 hours after plating, cells were exposed to ten, two-fold or three fold serial dilutions of test individual compounds or the combination of the two test compounds at a constant molar to molar ratio or non-constant ratio of two agents. Cells were incubated in the presence of compounds for 3 days except for H1975, which was for 2 days at 3×10^3 cells/well.
(§3) Cell growth inhibition based on measurement of cellular protein content is determined by sulforhodamine B colorimetric assay according to the “Nat Protoc. […] The absorbance was read on a SpectraMax™ plate reader at 540 nm. For H1975 cells, cell growth (%) is determined by adding CellTiter™ 96 Aqueous One Solution Cell Proliferation Assay reagent (Promega) according to the manufacturer's protocol.
(§4) Inhibition of cell growth was estimated after treatment with test agent or combination of test agents for incubating time (2-3 days) and comparing the signal to cells treated with vehicle (DMSO). Cell growth (%) was calculated by following equations.
(§5) Percentage growth inhibition was calculated using:
(§6) a. [(Ti−Tz)/(C−Tz)]×100, for concentrations for which Ti=Tz
(§7) b. [(Ti−Tz)/Tz]×100, for concentrations for which Ti<Tz
(§8) Each T value means an absorbance. Tz: Time zero (cell density group before the treatment of test group), C:100% control growth […] test agent, Ti: Test growth in the presence of drug at the concentration levels.
(§9) Combination effects on potency were evaluated by combination Index using Calcusyn™ Software. The range of Combination Index (CI) for two compounds is described in Table 2.
(§10) Fifty percent growth inhibition values (GI50) for combinations of poziotinib with partner drugs were calculated and the single dosing growth inhibition (%) at the dose of combo GI50 were also calculated by using GraphPad Prism™ v6. The combination Index (CI) at the dose of combination GI50 was evaluated by using CalcuSyn™ (Biosoft).

MCF-7 cells = experiment: as above; settings: Homo sapiens, MCF7, 72 h; MCF-7, single agent, 3 days
Experimental: as §1, §2, §3, §4, §5, §6, §7, §8, §9, §10

MDA-MB-361 cells = experiment: as above; settings: Homo sapiens, 72 h; MDA-MB-361, single agent, 3 days
Experimental: as §1, §2, §3, §4, §5, §6, §7, §8, §9, §10

MDA-MB-468 cells = experiment: as above; settings: Homo sapiens, 72 h; MDA-MB-468, single agent, 3 days
Experimental: as §1, §2, §3, §4, §5, §6, §7, §8, §9, §10

SK-BR-3 cells = experiment: as above; settings: Homo sapiens, SK-BR-3, 72 h; SK-BR3, single agent, 3 days
Experimental: as §1, §2, §3, §4, §5, §6, §7, §8, §9, §10

HCC827 cells = experiment: as above; settings: HCC827, single agent, 3 days
Experimental: as §1, §2, §3, §4, §5, §6, §7, §8, §9, §10

MDA-MB-453 cells = experiment: as above; settings: MDA-MB-453, single agent, 3 days
Experimental: as §1, §2, §3, §4, §5, §6, §7, §8, §9, §10

H1975 cells = experiment: Cell growth inhibition assay (CellTiter 96 Aqueous One), single agents and combinations; settings: H1975, single agent, 2 days
Experimental: as §1, §2, §3, §4, §5, §6, §7, §8, §9, §10

BT-474 cell line = experiment: Synergy effect study on cell proliferation (Example 2), single agents and 6x6 combo matrix; settings: BT-474, single compound; for IC50 / Max inh.: 3 days
Experimental: (§11) Cells were seeded in a 96-well plate at 4 to 15×10^3 cells/well. Approximately 24 hours after plating, cells were exposed to ten, two-fold or three fold serial dilutions of test individual compounds or the combination of the two test compounds at a constant molar to molar ratio or non-constant ratio of two agents. Cells were incubated in the presence of compounds for 3 days.
as §4
(§12) Percentage growth inhibition was calculated using both Bliss independence model and Lowewe additivity model. A score higher than 5 indicates synergy and a score less that −5 indicates antagonism.

Calu-3 cell line = experiment: as above; settings: Calu-3, single compound; for Max inh. / IC50: 3 days
Experimental: as §11, §4, §12

SK-BR-3 cell line = experiment: as above; settings: SK-BR-3, single compound, 3 days
Experimental: In this example, effects of direct cell killing of selected cancer cell line Calu-3, BT-474 and SK-BR-3 treated with Poziotinib alone or in combination with other agents were assessed.
All cells were cultured in the media listed in the temperature of 37° C., 5% CO2 and 95% humidity. Cells were seeded in a 96-well plate at 4 to 15×10^3 cells/well. Approximately 24 hours after plating, cells were exposed to ten, two-fold or three fold serial dilutions of test individual compounds or the combination of the two test compounds at a constant molar to molar ratio or non-constant ratio of two agents. Cells were incubated in the presence of compounds for 3 days.
as §4, §12
Calu-3, BT-474 or SK-BR-3 cell lines were tested with Poziotinib combined with a second compound respectively in a 6×6 combo matrix for 3 days at 37° C., 5% CO2 and 95% humidity as shown in combinations shown in the tables herein below: […]

N87 cells = experiment: Cell growth inhibition assay (sulforhodamine B), single agents and combinations; settings: 72 h; N87, single agent, 3 days
Experimental: as §1, §2, §3, §4, §5, §6, §7, §8, §9, §10

TE-4 cells = experiment: as above; settings: 72 h; TE-4, single agent, 3 days
Experimental: The effect of the inventive compositions on the cancer cell growth inhibition was conducted in EGFR-overexpressed or -mutated cancer cell lines. […] All cells except for H1975 were cultured for 72 hours prior to cell plating. […] Approximately 24 hours after plating, cells were exposed to ten, two-fold or three fold serial dilutions of test individual compounds or the combination of the two test compounds at a constant molar to molar ratio or non-constant ratio of two agents. Cells were incubated in the presence of compounds for 3 days except for H1975, which was for 2 days at 3×10^3 cells/well. Cell growth inhibition based on measurement of cellular protein content is determined by sulforhodamine B colorimetric assay according to the “Nat Protoc. […] The absorbance was read on a SpectraMax™ plate reader at 540 nm. For H1975 cells, cell growth (%) is determined by adding CellTiter™ 96 Aqueous One Solution Cell Proliferation Assay reagent (Promega) according to the manufacturer's protocol. […] Cell growth (%) was calculated by following equations. Percentage growth inhibition was calculated using: a. […] [(Ti−Tz)/Tz]×100, for concentrations for which Ti<Tz Each T value means an absorbance. […] Combination effects on potency were evaluated by combination Index using Calcusyn™ Software. […] The combination Index (CI) at the dose of combination GI50 was evaluated by using CalcuSyn™ (Biosoft).

[1] = Homo sapiens, Calu-3, 72 h, read-out: IC50

CCC1=C[C@@H]2CN(C1)Cc1c([nH]c3ccccc13)[C@@](C(=O)OC)(c1cc3c(cc1OC)N(C)[C@H]1[C@@](O)(C(=O)OC)[C@H](OC(C)=O)[C@]4(CC)C=CCN5CC[C@]31[C@@H]54)C2 [Vinorelbine]
GI50 (BT-474 cells; Homo sapiens, BT-474, 72 h): 0.0023 µM | GI50 (MCF-7 cells): 0.0036 µM | GI50 (MDA-MB-361 cells): 0.0011 µM | GI50 (MDA-MB-468 cells): 0.0003 µM | GI50 (SK-BR-3 cells): 0.0017 µM

N.N.[Cl][Pt][Cl] [Cisplatin]
GI50 (BT-474 cells): > 20 µM | GI50 (HCC827 cells): > 20 µM | GI50 (MDA-MB-453 cells): > 10 µM | GI50 (H1975 cells): > 10 µM | IC50 (BT-474 cell line): > 100 µM | Max inh. (BT-474 cell line): 41.78% and 37.43% | Max inh. (Calu-3 cell line): 59.75% and 69.39% and 68.77% | IC50 (SK-BR-3 cell line): 0.549 µM | Max inh. (SK-BR-3 cell line): 98.11%

ado-trastuzumab emtansine [T-DM1]
IC50 (Calu-3 cell line): 90.449 µg/mL | Max inh. (Calu-3 cell line): 55.24% | Max inh. (SK-BR-3 cell line): 85.37%

CC(=O)Nc1cccc(-n2c(=O)n(C3CC3)c(=O)c3c(Nc4ccc(I)cc4F)n(C)c(=O)c(C)c32)c1 [Trametinib]
Max inh. (BT-474 cell line): 15.91% | IC50 (BT-474 cell line; Homo sapiens, 72 h): > 10 µM | Max inh. (Calu-3 cell line): 89.69% | IC50 (Calu-3 cell line; [1]): 0.042 µM

CC(=O)O[C@H]1C(=O)[C@@]2(C)[C@H]([C@H](OC(=O)c3ccccc3)[C@]3(O)C[C@H](OC(=O)[C@H](O)[C@@H](NC(=O)c4ccccc4)c4ccccc4)C(C)=C1C3(C)C)[C@]1(OC(C)=O)CO[C@@H]1C[C@@H]2O [Paclitaxel]
GI50 (BT-474 cells; Homo sapiens, BT-474, 72 h): 0.001 µM | GI50 (HCC827 cells; Homo sapiens, 72 h): 0.0034 µM | GI50 (MDA-MB-453 cells; Homo sapiens, MDA-MB-453, 72 h): 0.003 µM | GI50 (H1975 cells; Homo sapiens, NCI-H1975, 48 h): 0.0216 µM

CNC(=O)c1cc(Oc2ccc(NC(=O)Nc3ccc(Cl)c(C(F)(F)F)c3)cc2)ccn1 [Sorafenib]
Max inh. (Calu-3 cell line): 64.29% | IC50 (Calu-3 cell line; [1]): 4.48 µM

CC(=O)c1c(C)c2cnc(Nc3ccc(N4CCNCC4)cn3)nc2n(C2CCCC2)c1=O [Palbociclib]
Max inh. (BT-474 cell line): 12.13% | IC50 (BT-474 cell line; Homo sapiens, 72 h): > 5 µM

Nc1nc2[nH]cc(CCc3ccc(C(=O)N[C@@H](CCC(=O)O)C(=O)O)cc3)c2c(=O)[nH]1 [Pemetrexed]
cell inhibitory activity (in words) (BT-474 cell line): not effective | Max inh. (BT-474 cell line): 1.78% | IC50 (BT-474 cell line; Homo sapiens, 72 h): > 10 µM | cell inhibitory activity (in words) (Calu-3 cell line): not effective | Max inh. (Calu-3 cell line): 49.78% | IC50 (Calu-3 cell line; [1]): > 10 µM

N#Cc1ccc(C(c2ccc(C#N)cc2)n2cncn2)cc1 [Letrozole]
cell inhibitory activity (in words) (BT-474 cell line): weak or no response | Max inh. (BT-474 cell line): −15.80% | IC50 (BT-474 cell line; Homo sapiens, 72 h): > 10 µM

CO[C@H]1C[C@@H]2CC[C@@H](C)[C@@](O)(O2)C(=O)C(=O)N2CCCC[C@H]2C(=O)O[C@H]([C@H](C)C[C@@H]2CC[C@@H](OC(=O)C(C)(CO)CO)[C@H](OC)C2)CC(=O)[C@H](C)/C=C(\C)[C@@H](O)[C@@H](OC)C(=O)[C@H](C)C[C@H](C)/C=C/C=C/C=C/1C [Temsirolimus]
Max inh. (Calu-3 cell line): 58.19% | IC50 (Calu-3 cell line; [1]): 0.167 µM

C=CC(=O)N1CCC(Oc2cc3c(Nc4ccc(Cl)c(Cl)c4F)ncnc3cc2OC)CC1 [Poziotinib, 1-[4-[4-(3,4-dichloro-2-fluoroanilino)-7-methoxyquinazolin-6-yl]oxypiperidin-1-yl]prop-2-en-1-one]
GI50 (BT-474 cells; Homo sapiens, BT-474, 72 h): 0.0005 µM | GI50 (HCC827 cells; Homo sapiens, 72 h): 0.0004 µM | GI50 (MCF-7 cells): 2.74 µM | GI50 (MDA-MB-361 cells): 0.021 µM | GI50 (MDA-MB-453 cells; Homo sapiens, MDA-MB-453, 72 h): 0.0025 µM | GI50 (MDA-MB-468 cells): 0.64 µM | GI50 (N87 cells): 0.0001 µM | GI50 (SK-BR-3 cells): 0.0009 µM | GI50 (H1975 cells): 0.0013 µM | GI50 (TE-4 cells): 0.0008 µM | Max inh. (BT-474 cell line): 71.74% | IC50 (BT-474 cell line; listed as Pozotinb): < 0.0015 µM | Max inh. (BT-474 cell line; listed as Pozotinb): 68.16% | IC50 (BT-474 cell line; Homo sapiens, 72 h): < 0.0015 µM | Max inh. (Calu-3 cell line): 94.51% and 81.67% | Max inh. (Calu-3 cell line; listed as Pozotinb): 89.22% | IC50 (SK-BR-3 cell line; Homo sapiens, 72 h): 0.001 µM | Max inh. (SK-BR-3 cell line): 57.81%

O=c1[nH]cc(F)c(=O)[nH]1 [5-FU, Fluorouracil]
GI50 (BT-474 cells; Homo sapiens, BT-474, 72 h): 9 µM | GI50 (HCC827 cells; Homo sapiens, 72 h): 0.98 µM | GI50 (MDA-MB-453 cells; Homo sapiens, MDA-MB-453, 72 h): 0.385 µM | GI50 (H1975 cells; Homo sapiens, NCI-H1975, 48 h): > 10 µM | GI50 (TE-4 cells): 7.9 µM
